Data on five compounds can be found in US20080051447A1, “Treatment Of Hypercholesterolemia, Hypertriglyceridemia And Cardiovascular-Related Conditions Using Phospholipase-A2 Inhibitors” (priority 2005, published 2008).

Data set [1] addresses human pancreatic secreted PLA2 (hps PLA2) (Homo sapiens, UniProt P04054). Conditions: reported activity data; cited from earlier work.
A further data set has as its target human PLA2 IB enzyme (Homo sapiens, UniProt P04054). Conditions: pyrene substrate release from vesicles (Singer, Ghomashchi et al. 2002); read-out: IC50 versus the human PLA2 IB enzyme; cited from earlier work.
For the next data set, the target named is mouse PLA2 IB enzyme (Mus musculus, UniProt Q9Z0Y2). Conditions: pyrene substrate release from vesicles (Singer, Ghomashchi et al. 2002); read-out: IC50 versus the mouse PLA2 IB enzyme; cited from earlier work.
mouse PLA2 IB enzyme, sequence (Q9Z0Y2 23-146): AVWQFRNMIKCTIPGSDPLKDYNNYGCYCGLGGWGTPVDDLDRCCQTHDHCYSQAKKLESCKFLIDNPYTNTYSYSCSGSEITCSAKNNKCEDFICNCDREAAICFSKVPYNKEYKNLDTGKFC
Data set [2] has as its system wild-type C57BL/6 mice on high fat/high sucrose diet. Put plainly: Body weight gain in mice on high fat/high sucrose diabetogenic diet (Example 5A). The class given is in vivo. Conditions: for body weight gain compared to the wild-type control group: week 4 and week 10. How it is done: (§1) ILY-4001 (FIG. 2) was evaluated as a PLA2 IB inhibitor in a set of experiments using wild-type mice and genetically deficient PLA2 (−/−) mice (also referred to herein as PLA2 knock-out (KO) mice). In these experiments, wild-type and PLA2 (−/−) mice were maintained on a high fat/high sucrose diet, details of which are described below.
(§2) Briefly, four groups were set up, each having six mice. Three of the groups included six wild-type PLA2 (+/+) mice in each group (eighteen mice total), and one of the groups included six genetically deficient PLA2 (−/−) mice. One of the wild-type groups was used as a wild-type control group, and was not treated with ILY-4001. The other two wild-type groups were treated with ILY-4001—one group at a lower dose (indicated as “L” in Table 1) of 25 mg/kg/day, and the other at a higher dose (indicated as “H” in Table 1) of 90 mg/kg/day. The group comprising the PLA2 (−/−) mice was used as a positive control group.
(§3) The experimental protocol used in this study was as follows. The four groups of mice, including wild type and isogenic PLA2 (−/−) C57BL/J mice were acclimated for three days on a low fat/low carbohydrate diet. After the three day acclimation phase, the animals were fasted overnight and serum samples taken to establish baseline plasma cholesterol, triglyceride, and glucose levels, along with baseline body weight. The mice in each of the treatment groups were then fed a high fat/high sucrose diabetogenic diet (Research Diets D12331). 1000 g of the high fat/high sucrose D12331 diet was composed of casein (228 g), DL-methionine (2 g), maltodextrin 10 (170 g), sucrose (175 g), soybean oil (25 g), hydrogenated coconut oil (333.5 g), mineral mix S10001 (40 g), sodium bicarbonate (10.5 g), potassium citrate (4 g), vitamin mix V10001 (10 g), and choline bitartrate (2 g). This diet was supplemented with ILY-4001 treatments such that the average daily dose of the compound ingested by a 25 g mouse was: 0 mg/kg/day (wild-type control group and PLA2 (−/−) control group); 25 mg/kg/day (low-dose wild-type treatment group), or 90 mg/kg/day (high-dose wild-type treatment group). The animals were maintained on the high fat/high sucrose diet, with the designated ILY-4001 supplementation, for a period of ten weeks.
Body weight measurements were taken for all animals in all treatment and control groups at the beginning of the treatment period and at 4 weeks and 10 weeks after initiation of the study. (See Example 5A). Blood draws were also taken at the beginning of the treatment period (baseline) and at 4 weeks and 10 weeks after initiation of the study, in order to determine fasting glucose (See Example 5B). Cholesterol and triglyceride levels were determined from blood draws taken at the beginning of the treatement (baseline) and at ten weeks. (See Example 5C).
In the study generally described above in Example 5, body weight measurements were taken for all animals in all treatment and control groups at the beginning of the treatment period and at 4 weeks and 10 weeks after initiation of the study.

Data set [3] is described as follows: Pharmokinetic study, bioavailability (Example 6C). Conditions: ORAL 30 mg/kg. The class given is in vivo, mice. The text has this:
This example characterized ILY-4001 [2-(3-(2-amino-2-oxoacetyl)-1-(biphenyl-2-ylmethyl)-2-methyl-1H-indol-4-yloxy)acetic acid], alternatively referred to herein as methyl indoxam, with respect to activity, as determined by IC50 assay (Example 6A), with respect to cell absorbtion, as determined by in-vitro Caco-2 assay (Example 6B) and with respect to bioavailability, as determined using in-vivo mice studies (Example 6C).
This example evaluated the bioavailability of ILY-4001 [2-(3-(2-amino-2-oxoacetyl)-1-(biphenyl-2-ylmethyl)-2-methyl-1H-indol-4-yloxy)acetic acid], alternatively referred to herein as methyl indoxam. […]
Bioavailability was calculated as a ratio of AUC-oral/AUC-intravenous (IV). To determine this ratio, a first set of subject animals were given a measured intravenous (IV) dose of ILY-4001, followed by a determination of ILY-4001 levels in the blood at various time points after administration (e.g., 5 minutes through 24 hours). Another second set of animals was similarly dosed using oral administration, with blood levels of ILY-4001 determined at various time points after administration (e.g., 30 minutes through 24 hours). The level of ILY-4001 in systemic circulation were determined by generally accepted methods (for example as described in Evans, G., A Handbook of Bioanalysis and Drug Metabolism. Boca Raton, CRC Press (2004)). […]

The nature of another data set: Stability at low pH. The class given is physicochemical. Conditions: predicted to survive passage through the stomach.
Data set [4] has as its system wild-type C57BL/6 mice on high fat/high sucrose diet. Put plainly: Fasting serum glucose in mice on high fat/high sucrose diabetogenic diet (Example 5B). Conditions: low dose 25 mg/kg/day (group 2). The class given is in vivo. As to the method:
as §1, §2
The experimental protocol used in this study was as follows. […]
Body weight measurements were taken for all animals in all treatment and control groups at the beginning of the treatment period and at 4 weeks and 10 weeks after initiation of the study. […] Cholesterol and triglyceride levels were determined from blood draws taken at the beginning of the treatement (baseline) and at ten weeks. […]

The next data set deals with Caco-2 cells. Put plainly: Caco-2 permeability study (Example 6B). The class given is in vitro ADME, human. How it is done:
The culture medium was refreshed every 48 hours.
A general note: Caco-2 cells form a polarised layer with tight junctions and transporters.

Data set [5] concerns wild-type C57BL/6 mice on high fat/high sucrose diet. Put plainly: Serum cholesterol and triglycerides in mice on high fat/high sucrose diabetogenic diet (Example 5C). The class given is in vivo. Conditions: 10 weeks. As to the method: as §1, §2, §3
Body weight measurements were taken for all animals in all treatment and control groups at the beginning of the treatment period and at 4 weeks and 10 weeks after initiation of the study. (See Example 5A). Blood draws were also taken at the beginning of the treatment period (baseline) and at 4 weeks and 10 weeks after initiation of the study, in order to determine fasting glucose (See Example 5B). Cholesterol and triglyceride levels were determined from blood draws taken at the beginning of the treatement (baseline) and at ten weeks. […]

The target in data set [6] is porcine pancreatic secreted PLA2 (pps PLA2) (Sus scrofa, UniProt P00592). Conditions: reported activity data; cited from earlier work.
porcine pancreatic secreted PLA2 (pps PLA2), sequence (P00592 23-146): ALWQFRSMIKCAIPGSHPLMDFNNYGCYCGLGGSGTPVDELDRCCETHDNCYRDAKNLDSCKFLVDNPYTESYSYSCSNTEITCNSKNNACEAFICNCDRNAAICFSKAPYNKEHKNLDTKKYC
[7] abbreviates: high dose 90 mg/kg/day (group 3).
Setting [8] is: low dose 25 mg/kg/day (group 2).

human pancreatic secreted PLA2 (hps PLA2), sequence (P04054 23-148): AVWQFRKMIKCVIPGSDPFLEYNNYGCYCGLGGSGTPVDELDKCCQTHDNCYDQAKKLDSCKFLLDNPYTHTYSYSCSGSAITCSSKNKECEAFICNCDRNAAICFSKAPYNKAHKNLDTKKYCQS
human PLA2 IB enzyme, sequence (P04054 23-148): as above

The IC50 is the midpoint of a concentration-inhibition curve. As for `Cc1c(C(=O)C(N)=O)c2c(/C=C/C(=O)O)cccc2n1Cc1ccccc1`, in [1], the IC50 is over 100 µM.
For the compound `Cc1c(C(=O)C(N)=O)c2c(CCC(=O)O)cccc2n1Cc1ccccc1`, in data set [1], the IC50 is over 100 µM.
In the case of `Cc1c(C(=O)C(N)=O)c2c(OCC(=O)O)cccc2n1Cc1ccccc1-c1ccccc1` [ILY-4001, 2-(3-(2-amino-2-oxoacetyl)-1-(biphenyl-2-ylmethyl)-2-methyl-1H-indol-4-yloxy)acetic acid], the IC50 at human PLA2 IB enzyme was about 200 nM; at mouse PLA2 IB enzyme, about 150 nM. The “body weight gain relative to PLA2 (−/−) mice” value in data set [2] (25 mg/kg/d (low-dose) in diet, ten weeks) is “modulated to an extent comparable to that achieved in the PLA2 (−/−) mice”; in data set [2] (25 mg/kg/d in diet, four weeks) it was “modulated to an extent approaching that achieved in the PLA2 (−/−) mice”; in data set [2] (90 mg/kg/d in diet, four weeks), “modulated to an extent approaching that achieved in the PLA2 (−/−) mice”. The “body weight gain compared to the wild-type control group” value in data set [2] (25 mg/kg/d in diet) and in data set [2] (90 mg/kg/d in diet) was “significantly reduced body weight gains” in each case. Further, in data set [3], the “level of non-absorption from the GI tract into systemic circulation” value is listed as about 72%. The “stability at low pH” value in the data set “Stability at low pH” is given as “stable at low pH”. Besides, the fasting glucose levels result in data set [4] (week four) is “moderately beneficial effect”; in data set [4] (week ten), “a beneficial effect was not observed”. Moreover, the apparent permeability result in the data set on Caco-2 cells (Caco-2 monolayers, apical to basolateral, 50 ug/ml) was “around 1.66×10^−7 cm/s”. Further, the “absorbtion from the GI lumen” value in the data set with Caco-2 cells (based on Caco-2 assays and pharmokinetic studies) is “relatively low absorbtion”. For the same compound, the “plasma levels of cholesterol” value in data set [5] (setting [7]) and in data set [5] (setting [8]) was “substantially reduced” each time. In addition, the “plasma levels of triglycerides” value in data set [5] (setting [7]) and in data set [5] (setting [8]) was “substantially reduced” in each case.
For the compound `Cc1c(CC(=O)NN)c2cc(OCCCC(=O)O)ccc2n1Cc1ccccc1`, the “IC50 hps PLA2” value in data set [1] is “no activity”. Besides, the “IC50 pps PLA2” value in [6] was “no activity”.
For the compound Lucifer Yellow [reference compound], the “apparent permeability (paracellular transport control)” value with Caco-2 cells (Caco-2) is on record as “around 2.82×10^−7+/−0.37×10^−7 cm/s”.
